Assay results as given in patent US20100056524A1, “Compound” (priority 2008, published 2010).
Counter-ions that a name gives are not always drawn.

Target: T1, TBK1 (Homo sapiens, UniProt Q9UHD2)
T1 construct: All protein kinases were of human origin and encoded full length proteins, unless indicated otherwise; His6; made in house; host or cells: insect Sf21 cells
T1 sequence (Q9UHD2 1-729): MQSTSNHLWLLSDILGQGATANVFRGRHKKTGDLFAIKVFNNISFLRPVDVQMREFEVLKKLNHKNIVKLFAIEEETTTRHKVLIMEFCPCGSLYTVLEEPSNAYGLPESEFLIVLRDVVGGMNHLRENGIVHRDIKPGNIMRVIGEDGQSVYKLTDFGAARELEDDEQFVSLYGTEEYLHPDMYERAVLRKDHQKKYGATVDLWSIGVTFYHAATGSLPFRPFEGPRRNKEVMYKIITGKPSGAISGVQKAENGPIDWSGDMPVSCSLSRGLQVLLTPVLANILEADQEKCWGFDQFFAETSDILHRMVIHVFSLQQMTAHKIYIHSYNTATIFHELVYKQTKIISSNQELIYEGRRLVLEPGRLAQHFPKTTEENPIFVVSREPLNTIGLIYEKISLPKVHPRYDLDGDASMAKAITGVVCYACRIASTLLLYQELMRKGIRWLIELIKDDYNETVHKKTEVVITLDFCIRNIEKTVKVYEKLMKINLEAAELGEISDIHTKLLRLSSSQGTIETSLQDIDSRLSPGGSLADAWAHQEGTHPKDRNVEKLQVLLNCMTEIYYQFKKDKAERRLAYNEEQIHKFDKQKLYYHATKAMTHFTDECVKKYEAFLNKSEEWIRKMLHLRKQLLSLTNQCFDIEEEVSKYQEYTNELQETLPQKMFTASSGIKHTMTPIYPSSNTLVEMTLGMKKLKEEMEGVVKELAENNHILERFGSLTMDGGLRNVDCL
Assay: TBK1 protein kinase assay ([γ-33P]ATP, P81 filterplates)
Assay type: biochemical
Conditions: 50 μM ATP; read-out: Potency (TBK1 IC50 potency score)
How it was run: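 Human TBK1 assayed for 30 min with peptide substrate (300 μM), 50 μM [γ-33P]ATP and 10 mM magnesium acetate in 50 mM Tris/HCl pH 7.5, 0.1 mM EGTA, 0.1% 2-mercaptoethanol. Stopped with orthophosphoric acid and counted on P81 filters. IC50 from 10 compound concentrations.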

O=C(NCCCNc1nc(Nc2cccc(CN3CCCC3)c2)ncc1C1CC1)C1CCC1 [Example 131, Cyclobutanecarboxylic acid {3-[5-cyclopropyl-2-(3-pyrrolidin-1-ylmethyl-phenylamino)-pyrimidin-4-ylamino]-propyl}-amide] and O=C(NCCCNc1nc(Nc2cccc(CN3CCCCC3)c2)ncc1C1CC1)C1CCC1 [Example 134, Cyclobulanecarboxylic acid {3-[5-cyclopropyl-2-(3-piperidin-1-ylmethyl-phenylamino)-pyrimidin-4-ylamino]-propyl}-amide] cannot be ordered by IC50: under 100 nM for the first, under 100 nM for the second.

CN(Cc1cccc(Nc2ncc(C3CC3)c(NCCCNC(=O)C3CCC3)n2)c1)C1CCCC1 [Example 132, Cyclobutanecarboxylic acid [3-(2-{3-[(cyclopentyl-methyl-amino)-methyl]-phenylamino}-5-cyclopropyl-pyrimidin-4-ylamino)-propyl]-amide] and CC(C)CN(C)Cc1cccc(Nc2ncc(C3CC3)c(NCCCNC(=O)C3CCC3)n2)c1 [Example 133, Cyclobutanecarboxylic acid [3-(5-cyclopropyl-2-{3-[(isobutyl-methyl-amino)-methyl]-phenylamino}-pyrimidin-4-ylamino)-propyl]-amide] cannot be ordered by IC50: under 100 nM for the first, under 100 nM for the second.

O=C(NCCCNc1nc(Nc2cccc(CN3CCC(F)(F)CC3)c2)ncc1C1CC1)C1CCC1 [Example 135, Cyclobutanecarboxylic acid (3-{5-cyclopropyl-2-[3-(4,4-difluoro-piperidin-1-ylmethyl)-phenylamino]-pyrimidin-4-ylamino}-propyl)-amide] and O=C(NCCCNc1nc(Nc2ccc(CN3CCC(F)(F)CC3)nc2)ncc1C1CC1)C1CCC1 [Example 148, Cyclobutanecarboxylic acid (3-{5-cyclopropyl-2-[6-(4,4-difluoro-piperidin-1-ylmethyl)-pyridin-3-ylamino]-pyrimidin-4-ylamino}-propyl)-amide] cannot be ordered by IC50: under 100 nM for the first, under 100 nM for the second.

N#CCc1cccc(Nc2ncc(C3CC3)c(NCCCNC(=O)C3CCC3)n2)c1 [Example 136, Cyclobutanecarboxylic acid {3-[2-(3-cyanomethyl-phenylamino)-5-cyclopropyl-pyrimidin-4-ylamino]-propyl}-amide] and O=C(NCCCNc1nc(Nc2cccc(Br)c2)ncc1C1CC1)C1CCC1 [Example 141, Cyclobutanecarboxylic acid {3-[2-(3-bromo-phenylamino)-5-cyclopropyl-pyrimidin-4-ylamino]-propyl}-amide] cannot be ordered by IC50: under 100 nM for the first, under 100 nM for the second.

Cn1ncc2cc(Nc3ncc(C4CC4)c(NCCCNC(=O)C4CCC4)n3)ccc21 [Example 137, Cyclobutanecarboxylic acid {3-[5-cyclopropyl-2-(1-methyl-1H-indazol-5-ylamino)-pyrimidin-4-ylamino]-propyl}-amide] and Cn1ncc2ccc(Nc3ncc(C4CC4)c(NCCCNC(=O)C4CCC4)n3)cc21 [Example 139, Cyclobutanecarboxylic acid {3-[5-cyclopropyl-2-(1-methyl-1H-indazol-6-ylamino)-pyrimidin-4-ylamino]-propyl}-amide] cannot be ordered by IC50: under 100 nM for the first, under 100 nM for the second.

Cn1cc2ccc(Nc3ncc(C4CC4)c(NCCCNC(=O)C4CCC4)n3)cc2n1 [Example 138, Cyclobutanecarboxylic acid {3-[5-cyclopropyl-2-(2-methyl-2H-indazol-6-ylamino)-pyrimidin-4-ylamino]-propyl}-amide] and Cn1cc(Nc2ncc(C3CC3)c(NCCCNC(=O)C3CCC3)n2)cn1 [Example 153, Cyclobutanecarboxylic acid {3-[5-cyclopropyl-2-(1-methyl-1H-pyrazol-4-ylamino)-pyrimidin-4-ylamino]-propyl}-amide] cannot be ordered by IC50: under 100 nM for the first, under 100 nM for the second.

O=C(NCCCNc1nc(Nc2cccc(N3CCNC3=O)c2)ncc1C1CC1)C1CCC1 [Example 140, Cyclobutanecarboxylic acid (3-{5-cyclopropyl-2-[3-(2-oxo-imidazolidin-1-yl)-phenylamino]-pyrimidin-4-ylamino}-propyl)-amide] and O=C(NCCCNc1nc(Nc2cccc(C(=O)N3CCNCC3)c2)ncc1C1CC1)C1CCC1 [Example 142, Cyclobutanecarboxylic acid (3-{5-cyclopropyl-2-[3-(piperazine-1-carbonyl)-phenylamino]-pyrimidin-4-ylamino}-propyl)-amide. Hydrochloride] cannot be ordered by IC50: under 100 nM for the first, under 100 nM for the second.

O=C(NCCCNc1nc(Nc2cccc(OCCN3CCOCC3)c2)ncc1C1CC1)C1CCC1 [Example 143, Cyclobutanecarboxylic acid (3-{5-cyclopropyl-2-[3-(2-morpholin-4-yl-ethoxy)-phenylamino]-pyrimidin-4-ylamino}-propyl)-amide] and O=C(NCCCNc1nc(Nc2ccc(OCCN3CCOCC3)nc2)ncc1C1CC1)C1CCC1 [Example 154, Cyclobutanecarboxylic acid (3-{5-cyclopropyl-2-[6-(2-morpholin-4-yl-ethoxy)-pyridin-3-ylamino]-pyrimidin-4-ylamino}-propyl)-amide] cannot be ordered by IC50: under 100 nM for the first, under 100 nM for the second.

O=C(NCCCNc1nc(Nc2cccc(NC(=O)N3CCCC3)c2)ncc1C1CC1)C1CCC1 [Example 144, Pyrrolidine-1-carboxylic acid (3-{4-[3-(cyclobutanecarbonyl-amino)-propylamino]-5-cyclopropyl-pyrimidin-2-ylamino}-phenyl)-amide] and O=C(NCCCNc1nc(Nc2ccc(N3CCCC3)nc2)ncc1C1CC1)C1CCC1 [Example 151, Cyclobutanecarboxylic acid {3-[5-cyclopropyl-2-(6-pyrrolidin-1-yl-pyridin-3-ylamino)-pyrimidin-4-ylamino]-propyl}-amide] cannot be ordered by IC50: under 100 nM for the first, under 100 nM for the second.

CC(C)(c1cccc(Nc2ncc(C3CC3)c(NCCCNC(=O)C3CCC3)n2)c1)N1CCOCC1 [Example 145, Cyclobutanecarboxylic acid (3-{5-cyclopropyl-2-[3-(1-methyl-1-morpholin-4-yl-ethyl)-phenylamino]-pyrimidin-4-ylamino}-propyl)-amide] and O=C(NCCCNc1nc(Nc2ccc(NCCN3CCOCC3)nc2)ncc1C1CC1)C1CCC1 [Example 158, Cyclobutanecarboxylic acid (3-{5-cyclopropyl-2-[6-(2-morpholin-4-yl-ethylamino)-pyridin-3-ylamino]-pyrimidin-4-ylamino}-propyl)-amide] cannot be ordered by IC50: under 100 nM for the first, under 100 nM for the second.

CN(C)[C@H]1CCN(Cc2ccc(Nc3ncc(C4CC4)c(NCCCNC(=O)C4CCC4)n3)cn2)C1 [Example 146, Cyclobutanecarboxylic acid (3-{5-cyclopropyl-2-[6-((S)-3-dimethylamino-pyrrolidin-1-ylmethyl)-pyridin-3-ylamino]-pyrimidin-4-ylamino}-propyl)-amide] and CN1CCN(Cc2ccc(Nc3ncc(C4CC4)c(NCCCNC(=O)C4CCC4)n3)cn2)CC1 [Example 147, Cyclobutanecarboxylic acid (3-{5-cyclopropyl-2-[6-(4-methyl-piperazin-1-ylmethyl)-pyridin-3-ylamino]-pyrimidin-4-ylamino}-propyl)-amide] cannot be ordered by IC50: under 100 nM for the first, under 100 nM for the second.

First: O=C(NCCCNc1nc(Nc2cncnc2)ncc1C1CC1)C1CCC1 [Example 149, Cyclobutanecarboxylic acid {3-[5-cyclopropyl-2-(pyrimidin-5-ylamino)-pyrimidin-4-ylamino]-propyl}-amide]
Second: O=C(NCCCNc1nc(Nc2cnc(N3CCOCC3)nc2)ncc1C1CC1)C1CCC1 [Example 152, Cyclobutanecarboxylic acid {3-[5-cyclopropyl-2-(2-morpholin-4-yl-pyrimidin-5-ylamino)-pyrimidin-4-ylamino]-propyl}-amide]
The IC50 of the first is higher: 1000 to 10000 nM for the first, under 100 nM for the second.

O=C(NCCCNc1nc(Nc2ccc(N3CCCCC3)nc2)ncc1C1CC1)C1CCC1 [Example 150, Cyclobutanecarboxylic acid {3-[5-cyclopropyl-2-(3,4,5,6-tetrahydro-2H-[1,2′]bipyridinyl-5′-ylamino)-pyrimidin-4-ylamino]-propyl}-amide] and O=C(NCCCNc1nc(Nc2ccc(CN3CCCCC3)nc2)ncc1C1CC1)C1CCC1 [Example 156, Cyclobutanecarboxylic acid {3-[5-cyclopropyl-2-(6-piperidin-1-ylmethyl-pyridin-3-ylamino)-pyrimidin-4-ylamino]-propyl}-amide] cannot be ordered by IC50: under 100 nM for the first, under 100 nM for the second.

O=C(NCCCNc1nc(Nc2cnn(CCN3CCOCC3)c2)ncc1C1CC1)C1CCC1 [Example 155, Cyclobutanecarboxylic acid (3-{5-cyclopropyl-2-[1-(2-morpholin-4-yl-ethyl)-1H-pyrazol-4-ylamino]-pyrimidin-4-ylamino}-propyl)-amide] and O=C(NCCCNc1nc(Nc2ccc(CN3CCCC(F)(F)C3)nc2)ncc1C1CC1)C1CCC1 [Example 157, Cyclobutanecarboxylic acid (3-{5-cyclopropyl-2-[6-(3,3-difluoro-piperidin-1-ylmethyl)-pyridin-3-ylamino]-pyrimidin-4-ylamino}-propyl)-amide] cannot be ordered by IC50: under 100 nM for the first, under 100 nM for the second.
